# US10835500B2, “Medicament for accelerated wound healing” (Symrise AG, priority 2014, dated 2020)
# Legend:
# Type in all cases: cell-based, human
# [1] = tested on: cAMP content of HaCaT cells; assay: cAMP assay (cAMP-Glo) in HaCaT cells
# Description: In order to identify the calcium channel through which calcium ions flow from the outside into the cytosol of the skin cells, the CNG channel blocker L-cis-diltiazem was used. […] An additional cAMP assay was conducted in order to verify the data of pharmacological characterization by means of the calcium imaging technique. For this purpose, HaCaT cells with various Sandalore® concentrations were stimulated, and cAMP content was determined.
# Pharmacological characterization of Sandalore®-induced signal cascade in human keratinocytes. A)-D). Shown are representative calcium imaging traces of primary keratinocytes in the presence of a blocker (blue). The horizontal bars correspond to the application times. 100 μM of ATP was used at the end of each measurement as a positive control stimulus. A) Measurement with calcium-free extracellular solution (+10 mM EGTA). B) Measurement with the adenylyl cyclase blocker SQ-22536 (100 μM). C) Use of the phospholipase-C blocker U-73122 (10 μM). 100 μM of histamine was taken as a positive control. D) Measurement with the CNG channel blocker L-cis-diltiazem (150 μM). E) Overview of pharmacological measurement of HaCaT cells and primary keratinocytes (Kera). […] Significance was determined between HaCaT cells stimulated with Sandalore® and stimulated with an equivalent volume of DMSO (0.2%). […]
# HaCaT cells = assay: Morphology and propidium iodide staining after 5-day stimulation, HaCaT cells; conditions: 5-day incubation with 500 μM
# Description: (§1) In order to obtain initial data on possible physiological effects caused by the activation of OR2AT4, HaCaT cells and primary keratinocytes were stimulated for five days with Sandalore®. […] A lethal effect of the odorant can therefore be ruled out (FIG. 16a).
# (§2) Effect of Sandalore® long-term stimulation on morphology, growth, and migration processes in keratinocytes. A) Phase contrast image and PI stains of HaCaT cells and primary keratinocytes after stimulation with Sandalore® (500 μM) or 0.1% DMSO (control) for five days. On positive PI staining, the cell nuclei are stained red. Scale: 100 μm. B) Evaluation of the proliferation assay carried out with the CyQuant Cell Proliferation Kit on HaCaT cells after 5-day stimulation with 500 μM of Sandalore® or 0.1% DMSO (control). For the RNA interference experiments, the cells were transfected with siRNA or scRNA on the day before Sandalore® stimulation. Shown is the mean cell count including standard error relative to untreated cells. Mann-Whitney U test; n=3 experiments. *: p<0.05; **: p<0.01. S: Sandalore. C) Agarose assay for determination of migration of HaCaT cells. Top: Transmitted light images of HaCaT cells that have migrated in the direction of Sandalore® (500 μM) or 0.1% DMSO. […] The longest path traversed by the cells and the overgrown area were measured and compared to the control (0.1% DMSO). […]
# primary keratinocytes = assay: Morphology and propidium iodide staining after 5-day stimulation, primary keratinocytes; conditions: 5-day incubation with 500 μM
# Description: as §1, §2
# IL-1α [2] = assay: Quantitative real-time PCR of IL-1α in HaCaT cells
# Description: (§3) In order to investigate interleukin secretion, quantitative real-time PCR was first carried out. For this purpose, RNA from HaCaT cells was used that had previously been stimulated for 6 or 24 hours with Sandalore®. Detection was carried out with specific primers of various interleukins (IL-1α, IL-1β, IL-6, IL-8) and tumor necrosis factor (TNF▪). […] In order to corroborate the results, an ELISA assay was carried out, in which the secreted interleukins in the supernatant of the cells can be detected by means of an immunological reaction. By means of the assay used, secretion of the interleukins (IL-1α, IL-1β, IL-2, IL-4, IL-6, IL-8, IL-10, IL-12, and IL-17α), TNFα, γ-interferon (IFNγ), and granulocyte macrophage colony-stimulating factor (GMCSF) was investigated.
# (§4) Investigation of interleukin secretion and phosphorylation of Akt protein kinase after Sandalore® stimulation. A) Investigation of the regulation of interleukins in HaCaT cells by means of qRT-PCR after stimulation with Sandalore® (500 μM) for 6 h and 24 h. 0.1% DMSO was used as a control. GAPDH was used as a reference gene, and the relative expression between untreated and stimulated cells was determined. Mean values including standard error. n=3 experiments. […] The measured optical density of the treated cells at 450 nm was expressed relative to the background. […]
# IL-1α [3] = assay: ELISA of secreted IL-1α in supernatant of HaCaT cells; conditions: 24-hour stimulation, 500 μM
# Description: as §3, §4
# protein kinase Akt = assay: Western Blot, phosphorylation of protein kinase Akt in HaCaT cells
# Description: In addition to the phosphorylated kinases already detected, the phosphorylation of protein kinase Akt was investigated. For this purpose, HaCaT cells were stimulated with Sandalore® for 0, 5, 15 and 30 min, and phosphorylation was investigated by means of Western Blot assays and special antibodies to the unphosphorylated or phosphorylated form of the Akt-protein.
# Investigation of interleukin secretion and phosphorylation of Akt protein kinase after Sandalore® stimulation. A) Investigation of the regulation of interleukins in HaCaT cells by means of qRT-PCR after stimulation with Sandalore® (500 μM) for 6 h and 24 h. 0.1% DMSO was used as a control. GAPDH was used as a reference gene, and the relative expression between untreated and stimulated cells was determined. Mean values including standard error. n=3 experiments. B) ELISA assay for the detection of interleukins in the supernatant of HaCaT cells stimulated for 24 h with Sandalore® (500 μM). 0.1% DMSO was used as a control. The measured optical density of the treated cells at 450 nm was expressed relative to the background. Supernatants of three independent stimulations were used. Mean values including standard error. Mann-Whitney U test. *: p<0.05. C) Western Blot for investigating phosphorylation of Akt protein kinase by HaCaT cells stimulated for 0, 5, 15, and 30 min with Sandalore® (500 μM). […]
compound,measurement,setting,value
CC1=CCC(CCC(C)C(C)O)C1(C)C (stereo not drawn) [Sandalore®],cAMP content,[1]; 10-minute stimulation with various concentrations,dose-dependent cAMP increase
same,EC50,"[1]; 10-minute stimulation, 1 μM-10,000 μM, read-out: EC50 value of cAMP increase",197 µM
same,morphological changes or PI staining (lethal effect),HaCaT cells,neither the HaCaT cells nor the keratinocytes showed morphological changes or PI staining
same,morphological changes or PI staining (lethal effect),primary keratinocytes,neither the HaCaT cells nor the keratinocytes showed morphological changes or PI staining
same,increase of expression of IL-1α relative to the control (0.1% DMSO),"IL-1α [2]; after 24 hours, 500 μM","approx. 10,000%"
same,expression of IL-1α,IL-1α [2]; summary statement,increased
same,secretion of IL-1α relative to the control (0.1% DMSO),IL-1α [3],significantly increased secretion
same,time until Akt kinase was phosphorylated,"protein kinase Akt; 500 μM, 0, 5, 15 and 30 min",≤ 5 min
same,activation of the protein kinase Akt,protein kinase Akt; summary statement,activated
